Laboratory results as given in ChEMBL document CHEMBL1201862, “PubChem BioAssay data set” (2004).
Active and inactive are the calls of the source.

Legend:
Bcl-2-related protein A1 = biological target: T1, Bcl-2-related protein A1 (Mus musculus, UniProt Q07440); format: functional;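 also: confirmatory dose–response counterscreen on Bfl-1, used to check hits from a UBC13 polyubiquitin inhibitor campaign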
T1 sequence (Q07440 whole entry): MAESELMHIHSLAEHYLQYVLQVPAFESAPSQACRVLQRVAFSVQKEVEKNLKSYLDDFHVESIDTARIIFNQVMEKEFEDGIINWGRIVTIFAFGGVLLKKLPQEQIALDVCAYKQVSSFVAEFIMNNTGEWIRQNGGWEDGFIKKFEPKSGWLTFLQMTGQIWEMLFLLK

[1] = biological target: T2, Ubiquitin-conjugating enzyme E2 N (Homo sapiens, UniProt P61088); format: functional
T2 sequence (P61088 whole entry): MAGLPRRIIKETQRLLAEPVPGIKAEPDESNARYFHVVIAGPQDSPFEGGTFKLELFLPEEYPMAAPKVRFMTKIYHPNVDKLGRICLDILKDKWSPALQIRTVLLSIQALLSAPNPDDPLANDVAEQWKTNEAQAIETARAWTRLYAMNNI

[2] = biological target: T2, Ubiquitin-conjugating enzyme E2 N; format: functional; remark: listed apart in the source
[3] = biological target: T3, Apoptotic protease-activating factor 1 (Homo sapiens, UniProt O14727); format: functional
T3 sequence (O14727 whole entry): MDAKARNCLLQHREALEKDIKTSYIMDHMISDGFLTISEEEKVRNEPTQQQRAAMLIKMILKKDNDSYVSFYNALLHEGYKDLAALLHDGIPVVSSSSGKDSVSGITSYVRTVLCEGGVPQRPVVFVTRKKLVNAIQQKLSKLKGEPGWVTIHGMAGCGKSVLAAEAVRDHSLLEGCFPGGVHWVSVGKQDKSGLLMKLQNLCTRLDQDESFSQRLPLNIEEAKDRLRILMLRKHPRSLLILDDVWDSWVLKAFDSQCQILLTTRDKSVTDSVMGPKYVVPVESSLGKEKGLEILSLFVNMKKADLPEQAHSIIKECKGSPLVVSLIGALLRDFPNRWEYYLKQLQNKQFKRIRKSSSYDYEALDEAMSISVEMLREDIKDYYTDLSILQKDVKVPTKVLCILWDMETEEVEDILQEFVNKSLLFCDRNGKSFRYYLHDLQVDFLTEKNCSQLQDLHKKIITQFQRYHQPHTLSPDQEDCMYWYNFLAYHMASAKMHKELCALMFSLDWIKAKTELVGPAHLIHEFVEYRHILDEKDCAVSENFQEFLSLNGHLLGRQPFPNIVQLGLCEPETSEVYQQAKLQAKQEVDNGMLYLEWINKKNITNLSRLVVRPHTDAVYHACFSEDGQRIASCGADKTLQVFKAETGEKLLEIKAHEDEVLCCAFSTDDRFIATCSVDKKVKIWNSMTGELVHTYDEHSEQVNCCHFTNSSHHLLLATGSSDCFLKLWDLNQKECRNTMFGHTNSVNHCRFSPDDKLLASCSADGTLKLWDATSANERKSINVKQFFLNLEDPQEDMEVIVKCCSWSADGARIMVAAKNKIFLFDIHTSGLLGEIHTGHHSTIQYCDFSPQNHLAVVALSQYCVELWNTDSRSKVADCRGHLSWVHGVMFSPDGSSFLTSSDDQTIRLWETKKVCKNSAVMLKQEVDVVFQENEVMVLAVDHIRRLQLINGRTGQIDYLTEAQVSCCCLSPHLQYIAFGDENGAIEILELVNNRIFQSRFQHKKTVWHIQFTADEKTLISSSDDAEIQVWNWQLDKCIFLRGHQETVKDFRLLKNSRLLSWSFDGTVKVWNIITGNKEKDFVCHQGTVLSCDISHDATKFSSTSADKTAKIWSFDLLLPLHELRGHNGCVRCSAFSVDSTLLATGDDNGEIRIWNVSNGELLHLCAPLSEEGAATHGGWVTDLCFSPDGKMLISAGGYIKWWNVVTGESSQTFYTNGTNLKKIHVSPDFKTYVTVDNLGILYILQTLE

Melanocortin receptor 4 = Melanocortin receptor 4 (Homo sapiens, UniProt P32245); format: functional, cell-based;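 also: Cell-based assay with luminescence read-out, confirmatory dose-response testing for agonist activity of biased ligands at MC4R; human U2OS cells with tagged receptor and beta-arrestin; potency of agonists that increase receptor coupling to beta-arrestin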
[4] = cytotoxicity toward MDA-MB-231 breast cancer cells – cell-based, CellTiter-Glo luminescence, cherry-pick, cytotoxicity control for RAD54 inhibitor project, dose response (AID 651692); format: functional
[5] = biological target: DNA repair and recombination protein RAD54-like (Homo sapiens, UniProt Q92698); assay: RAD54 Holliday junction migration blockers – biochemical, fluorescence, cherry-picked samples, dose series, confirmation (AID 651657); format: functional
[6] = biological target: G-protein coupled receptor 55 (Homo sapiens, UniProt Q9Y2T6); assay: selective activators of receptor GPR55 – imaging, U2OS cells, beta-arrestin-GFP redistribution, primary screen (AID 1961); format: functional
[7] = biological target: Glucose-6-phosphate 1-dehydrogenase (Homo sapiens, UniProt P11413); assay: inhibition of Homo sapiens G6PD, dose series – biochemical, fluorescence, selectivity assay for P. falciparum G6PD inhibitor project, dose response (AID 504792); format: functional
Trypsin = Trypsin (Sus scrofa, UniProt P00761); assay: trypsin protease activity blockade – biochemical, quenched peptide fluorescence, cherry-pick, selectivity assay for Rce1 protease inhibitor project, dose response (AID 488789)
CAAX prenyl protease 2 = biological target: T4, CAAX prenyl protease 2 (Saccharomyces cerevisiae S288c, UniProt Q03530); format: biochemical
T4 sequence (Q03530 whole entry): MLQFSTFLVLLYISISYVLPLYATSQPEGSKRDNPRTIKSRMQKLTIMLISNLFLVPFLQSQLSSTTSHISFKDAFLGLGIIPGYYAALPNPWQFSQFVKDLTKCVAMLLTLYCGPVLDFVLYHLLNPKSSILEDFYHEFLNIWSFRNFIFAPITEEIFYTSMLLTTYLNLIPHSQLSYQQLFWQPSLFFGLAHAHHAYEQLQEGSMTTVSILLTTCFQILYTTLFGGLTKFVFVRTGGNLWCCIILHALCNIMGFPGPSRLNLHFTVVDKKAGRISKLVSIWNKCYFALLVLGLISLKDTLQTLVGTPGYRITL

[8] = toxicity toward cultured mammalian cells – cell-based, plate reader, cherry-pick samples, cytotoxicity control, dose response (AID 504397); format: functional

Chain of DNA repair and recombination protein RAD54-like (Q92698 whole entry): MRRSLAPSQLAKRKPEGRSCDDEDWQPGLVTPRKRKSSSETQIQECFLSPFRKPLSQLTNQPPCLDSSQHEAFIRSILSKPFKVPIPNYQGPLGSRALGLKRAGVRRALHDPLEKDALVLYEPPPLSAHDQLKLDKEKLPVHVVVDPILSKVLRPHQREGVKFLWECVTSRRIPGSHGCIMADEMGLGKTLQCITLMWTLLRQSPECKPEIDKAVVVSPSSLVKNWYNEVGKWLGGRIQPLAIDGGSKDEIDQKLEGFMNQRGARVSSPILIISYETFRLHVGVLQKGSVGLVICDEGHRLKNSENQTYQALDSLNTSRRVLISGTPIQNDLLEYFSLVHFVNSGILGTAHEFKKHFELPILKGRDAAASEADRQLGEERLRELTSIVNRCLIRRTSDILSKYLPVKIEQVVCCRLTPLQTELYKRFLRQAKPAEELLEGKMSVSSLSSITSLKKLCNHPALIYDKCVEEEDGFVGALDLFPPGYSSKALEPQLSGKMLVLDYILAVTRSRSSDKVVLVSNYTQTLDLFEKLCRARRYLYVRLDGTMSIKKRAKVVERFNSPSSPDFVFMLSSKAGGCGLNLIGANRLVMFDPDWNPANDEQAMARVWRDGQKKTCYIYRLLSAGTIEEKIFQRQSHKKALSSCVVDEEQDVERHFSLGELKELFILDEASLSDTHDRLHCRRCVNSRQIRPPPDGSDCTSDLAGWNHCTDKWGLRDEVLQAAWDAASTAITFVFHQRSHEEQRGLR
Chain of Melanocortin receptor 4 (P32245 whole entry): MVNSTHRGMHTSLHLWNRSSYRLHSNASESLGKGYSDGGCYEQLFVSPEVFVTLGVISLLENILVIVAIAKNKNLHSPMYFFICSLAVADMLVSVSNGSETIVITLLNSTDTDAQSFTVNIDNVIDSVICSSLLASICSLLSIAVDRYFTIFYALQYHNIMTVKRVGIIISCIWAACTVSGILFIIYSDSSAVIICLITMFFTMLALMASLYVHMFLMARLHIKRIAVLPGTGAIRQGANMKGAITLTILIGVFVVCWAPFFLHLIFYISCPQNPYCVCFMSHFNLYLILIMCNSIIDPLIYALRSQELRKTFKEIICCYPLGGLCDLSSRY
Chain of Trypsin (P00761 whole entry): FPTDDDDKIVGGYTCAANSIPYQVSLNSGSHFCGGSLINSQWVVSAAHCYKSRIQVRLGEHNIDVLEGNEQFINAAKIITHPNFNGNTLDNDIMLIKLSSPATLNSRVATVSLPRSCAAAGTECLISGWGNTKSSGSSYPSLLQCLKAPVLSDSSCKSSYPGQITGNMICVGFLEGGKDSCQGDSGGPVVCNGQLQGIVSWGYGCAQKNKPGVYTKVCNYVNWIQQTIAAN
Chain of Glucose-6-phosphate 1-dehydrogenase (P11413 whole entry): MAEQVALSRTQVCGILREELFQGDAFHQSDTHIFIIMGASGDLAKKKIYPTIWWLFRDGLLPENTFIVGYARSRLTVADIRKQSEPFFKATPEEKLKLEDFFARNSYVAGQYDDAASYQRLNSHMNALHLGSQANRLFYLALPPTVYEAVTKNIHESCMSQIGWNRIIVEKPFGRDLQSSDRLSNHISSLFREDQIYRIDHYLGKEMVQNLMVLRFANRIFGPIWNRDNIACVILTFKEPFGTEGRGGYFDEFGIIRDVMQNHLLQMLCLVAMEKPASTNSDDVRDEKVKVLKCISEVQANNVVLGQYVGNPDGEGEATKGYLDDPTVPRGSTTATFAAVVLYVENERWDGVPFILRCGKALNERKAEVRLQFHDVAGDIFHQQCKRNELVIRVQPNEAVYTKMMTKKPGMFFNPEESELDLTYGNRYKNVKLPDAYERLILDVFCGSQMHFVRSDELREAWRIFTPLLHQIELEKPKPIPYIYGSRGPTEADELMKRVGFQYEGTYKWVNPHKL
Chain of G-protein coupled receptor 55 (Q9Y2T6 whole entry): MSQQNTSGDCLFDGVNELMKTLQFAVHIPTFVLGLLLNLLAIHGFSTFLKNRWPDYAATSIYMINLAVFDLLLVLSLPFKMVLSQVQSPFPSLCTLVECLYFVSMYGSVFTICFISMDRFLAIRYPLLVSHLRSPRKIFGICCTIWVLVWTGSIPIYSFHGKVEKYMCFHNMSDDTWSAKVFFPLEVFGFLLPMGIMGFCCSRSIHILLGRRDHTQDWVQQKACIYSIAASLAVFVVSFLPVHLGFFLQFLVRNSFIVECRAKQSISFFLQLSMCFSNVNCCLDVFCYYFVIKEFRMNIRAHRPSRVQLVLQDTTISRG

| SMILES | IC50 (Bcl-2-related protein A1) | IC50 [1] | IC50 [2] | IC50 [3] | EC50 (Melanocortin receptor 4) | AC50 [4] | AC50 [5] | EC50 [6] | IC50 [7] | AC50 (Trypsin) | AC50 (CAAX prenyl protease 2) | AC50 [8] |
| --- | --- | --- | --- | --- | --- | --- | --- | --- | --- | --- | --- | --- |
| Cc1ccc(-c2csc3nc4c5ccccc5c(NCCCN(C)C)nn4c(=O)c23)cc1 | > 20 µM (inactive) | 13.7 µM (active) | 3.7 µM (active) | 40 µM (active) | > 89.2 µM (inactive) | 13.6 µM (active) | 13.3 µM (active) | – | – | – | – | – |
| Cc1cc(NC(=O)c2oc3ccccc3c2C)ccc1-n1cnnn1 | – | – | – | – | – | – | – | 2.68 µM (active) | > 80 µM (inactive) | > 100 µM (inactive) | 0.558 µM (active) | > 350 µM (inactive) |
